The results in this text go back to patent US20170136008A1, “OXABICYCLOHEPTANES AND OXABICYCLOHEPTENES FOR THE TREATMENT OF OVARIAN CANCER” (priority 2014, published 2017).

Each structure is given as a SMILES string.

Common to all, as to assay type: cell-based, human
The subject of experiment [1] is p-Chk1 (S345) and apoptosis proteins in OVCAR-8 cells. The experiment in a line: Immunoblotting, OVCAR-8 cells. The settings on record: after 1 h cisplatin, recovery up to 8 h, vs media alone. How it is done: Whole cell and homogenized tumor tissues were lysed in NP-40 lysis buffer [50 mM Tris/HCl, pH 7.4, 150 mM NaCl and 1% Nonidet P40, supplemented with Complete Protrase Inhibitor Cocktail tablets and PhosStop phosphatase inhibitors (Roche, Indianapolis, Ind.)] and prepared as previously described (Madigan, J. P. et al. 2009). Protein (40 μg) was resolved on SDS/PAGE (12% or 15% gels) and transferred onto Immobilon PVDF membrane. The membrane was then blocked for 1 hour at room temperature in 5% (w/v) non-fat milk in TBS-Tween and probed overnight with primary antibodies. After extensive washing, cells were probed with anti-rabbit or anti-mouse IgG-horseradish per oxidase (HRP)-conjugated secondary antibodies (Cell Signaling Technology, Danvers, Mass.) in blocking buffer for 1 h. Membranes were subsequently incubated in Immobilon Western blot Chemiluminescent HRP Substrate (Millipore) and developed on biomax XAR film (Kodak). Antibodies were purchased from Cell Signaling Technology: γH2AX (Ser139), p-Wee1 (Ser 642), Wee1, p-cdc2 (Tyr15), p-BRCA1 (Ser1524), p-Chk1 (Ser345), p-Chk1 (Ser317), Chk-1, phospho-Chk2 (Thr68), PP2Ac, cleaved caspase-3 (Asp175), cleaved PARP (Asp214), p-histone H3 (Ser10), p-ATR (Ser428), and p-(Ser)14-3-3 binding motif. […]
Background: In western blotting, separated proteins are transferred to a membrane and probed.

Experiment [2] deals with OVCAR-8 PP2Ac shRNA-expressing cells. The experiment in a line: Cell viability (MTT) assay, OVCAR-8 PP2Ac shRNA. The settings on record: Homo sapiens; OVCAR-8 PP2Ac shRNA (knockdown). The procedure:
Cell survival was measured by the 3-(4,5-dimethylthiazol-2-yl)-2,5-diphenyltetrazolium bromide (MTT, Invitrogen) assay. Cells were seeded at a density of 5,000 cells per well in 96-well plates and incubated at 37° C. in humidified 5% CO2 for 24 hours. The 50% inhibitory concentration (IC50) values were defined as the drug concentrations required to reduce cellular proliferation to 50% of the untreated control well. […] All MTT assays were carried out according to the manufacturer's instructions (Molecular Probes, Eugen, Oreg.). Absorbance values were determined at […] on a Spectra Max 250 spectrophotometer (Molecular Devices, Sunnyvale, Calif.). All MTT assays were performed in triplicate. […] Cells were treated with both drugs for 72 h. Cell viability was analyzed via the MTT assay as described above. Experiments were performed in triplicate, and the data are presented as a percent mean±SD.
To stably knockdown expression of PP2AC, a pLKO.1-puro plasmid-based […] shRNA targeting the sequence: […] (clone ID:TRCN0000002483, Sigma-Aldrich) was employed (PP2AC-shRNA). Additionally, a non-targeting shRNA plasmid (NT-shRNA) that targets no known human sequence was utilized as a control. […]

Experiment [3] deals with PEO4 ovarian cancer cell line. The experiment in a line: MTT cytotoxicity assay, PEO4. The settings on record: Homo sapiens, PEO4, read-out: IC50, viability of ovarian cancer cell line. The procedure:
SKOV-3 ovarian cancer cells were purchased from American Type Culture Collection (ATCC) (Manassas, Va.). SKOV-3 cells were cultured in McCoy's 5A medium (ATCC, Manassas, Va.) supplemented with 10% fetal bovine serum and 100 units/mL penicillin G sodium, 100 ug/mL streptomycin sulfate, and 292 μg/ml, L-glutamine (BioWhittaker, Wakersville, Md.). Luciferase-expressing cells were generated by infecting SKOV-3 cells with pCLNCX-luciferase retrovirus (SKOV-3-Luc) as previously reported (Wei, B. R. et al. 2009). Human OVCAR-8 ovarian cancer cells were provided by the National Cancer Institute (part of the NCI-60 collection). The PEO1, PEO4, and PEO6 ovarian cancer cell lines have previously been characterized (Langdon, S. P. et al. 1988) and were kindly provided by Dr. Ian Goldlust (National Center for Advancing Translational Sciences, Shady Grove, Md.). […]
Cell survival was measured by the 3-(4,5-dimethylthiazol-2-yl)-2,5-diphenyltetrazolium bromide (MTT, Invitrogen) assay. […] Absorbance values were determined at […] on a Spectra Max 250 spectrophotometer (Molecular Devices, Sunnyvale, Calif.). […] Cell viability was analyzed via the MTT assay as described above. […]
On the technique in general: Formazan colour is commonly taken as a measure of viable cells.

As to `CN1CCN(C(=O)C2C(C(=O)O)[C@H]3CC[C@@H]2O3)CC1` (stereo partly drawn) [LB100], in experiment [1], the “phosphorylation of Chk1 at S345” value was “significantly increased”. Moreover, the IC50 in experiment [2] worked out at 3.9 ± 0.9 µM; in experiment [3] it was 5 ± 0.6 µM.

As a reminder, the IC50 is the concentration needed to halve the response being measured.
